In publication PMC9207806 (ACS Chemical Biology, 2022):
Where a name gives a salt, the structure may show the parent alone. Read-outs that look alike come from different tables or passages of the source.

Target: T1, VACV D9 decapping enzyme (Vaccinia virus, UniProt P04311)
T1 construct: His-tag (C); made in house
Experiment: biochemical
Format: biochemical
Description: Point fluorescence measurements were performed using the BioTek Synergy H1 microplate reader. Before each measurement, the reaction buffer was degassed. Experiments were performed in the Greiner 96-well, black, non-binding plates at 30 °C. Before the measurement, the plate was preincubated for 15 min at 30 °C with mixing (300 rpm). The point fluorescence was registered with 1 min interval and detection at 345 nm excitation wavelength and 378 nm emission wavelength.
Experiments to determine IC50 parameters were performed as point fluorescence measurements. Each well contained an appropriate buffer (10 mM MOPS·HCl, pH 7.0, 100 mM KOAc, containing 2 mM MgCl2, 0.3 mM MnCl2, and 2 mM DTT) with addition of 0.1% BSA, a fluorescent substrate (3 μM of probe 1b), an inhibitor (in half-logarithmic dilution, cinh ∈ 0, 100 μM), and an enzyme (5 nM of D9) to a final volume of 150 μL. To determine the IC50 values, a three parameter dose–response formula with standard hill slope from GraphPad Prism software was fitted [drawing 3] where V/V0 is the relative initial rate of the reaction, Imin and Imax are bottom and top plateaus, and Cinh is the concentration of the inhibitor.

[1] = in-house nucleotide library (Table S1, Figure 3), 3 μM probe 1b, 5 nM D9, 30 °C, means of 3 independent experiments ± SEM, read-out: IC50, nucleotide-derived compounds, FLINT HTS assay
[2] = read-out: IC50, nucleotide-derived compounds, FLINT HTS assay, in-house nucleotide library (Table S1, Figure 3), 3 μM probe 1b, 5 nM D9, 30 °C, means of 3 independent experiments ± SEM

Molecule	IC50 [1]	also measured
CO[C@@H]1[C@H](O)[C@@H](COP(=O)(O)OP(=O)(O)OP(=O)(O)OC[C@H]2O[C@@H]([n+]3cn(C)c4c(=O)[nH]c(N)nc43)[C@H](O)[C@@H]2O)O[C@H]1n1cnc2c(N)ncnc21 [m7GpppAm]	19.8 ± 3.6 µM	–
C[n+]1cn([C@@H]2O[C@H](COP(=O)(O)CP(=O)(O)OP(=O)(O)OC[C@H]3O[C@@H](n4cnc5c(=O)[nH]c(N)nc54)[C@H](O)[C@@H]3O)[C@@H](O)[C@H]2O)c2nc(N)[nH]c(=O)c21 [m7GpCH2ppG]	16.8 ± 3.3 µM	–
COc1cc(NS(C)(=O)=O)ccc1Nc1c2ccccc2nc2ccccc12 [amsacrine hydrochloride, reference compound]	–	IC50: 12.6 ± 1.7 µM
Nc1ncnc2c1ncn2[C@@H]1O[C@H](COP(=O)(O)OP(=O)(O)OP(=O)(O)OC[C@@H]2O[C@H](n3cnc4c(N)ncnc43)[C@@H](O)[C@H]2O)[C@@H](O)[C@H]1O [ApppA]	> 100 µM	–
C[n+]1cn(C2OC(COP(=O)([O-])OP(=O)(O)C(F)(F)P(=O)(O)OP(=O)([O-])OCC3OC(n4c[n+](C)c5c(=O)[nH]c(N)nc54)C(O)C3O)C(O)C2O)c2nc(N)[nH]c(=O)c21 (centres unmarked) [m7GppCF2ppm7G]	14.7 ± 2.6 µM	–
m7GpppApG	11.3 ± 2 µM	–
Gppp-triazole-m7G	35 ± 5.3 µM	–
m7Gppp m6AmpG	17.4 ± 3 µM	–
m7Gppp-SCH2-triazole-G	24.9 ± 4.8 µM	–
m7Gpp-SCH2-triazole-G	46 ± 6.8 µM	–
C[n+]1cn([C@@H]2O[C@H](COP(=O)(O)CP(=O)([O-])OP(=O)(O)O)[C@@H](O)[C@H]2O)c2nc(N)nc(O)c21 [m7GpCH2pp]	–	IC50 [2]: 0.58 ± 0.06 µM
Cn1c[n+]([C@@H]2O[C@H](COP(=O)(O)OP(=O)(O)OP(=O)(O)OC[C@H]3O[C@@H](n4cnc5c(N)ncnc54)[C@H](O)[C@@H]3O)[C@@H](O)[C@H]2O)c2nc(N)[nH]c(=O)c21 [m7GpppA]	33 ± 5.9 µM	–
Nc1nc2c(cnn2CCc2ccccc2)c2nc(-c3ccco3)nn12 [SCH 58261, reference compound]	–	IC50: 4.5 ± 0.8 µM
CNc1ncnc2c1ncn2[C@@H]1O[C@H](COP(=O)(O)OP(=O)(O)OP(=O)(O)OC[C@H]2O[C@@H](n3c[n+](C)c4c(=O)[nH]c(N)nc43)[C@H](O)[C@@H]2O)[C@@H](O)[C@H]1O [m7Gppp(m6A)]	31.5 ± 5.9 µM	–
C[n+]1cn([C@@H]2O[C@H](COP(O)(=S)OP(=O)(O)OP(=O)(O)O)[C@@H](O)[C@H]2O)c2nc(N)[nH]c(=O)c21 (some centres unmarked) [m7GTPαS]	0.64 ± 0.06 µM	–
C[n+]1cn(C2OC(COP(=O)(O)OP(=O)([O-])C(Cl)(Cl)P(=O)(O)OP(=O)(O)OCC3OC(n4cnc5c(=O)[nH]c(N)nc54)C(O)C3O)C(O)C2O)c2nc(N)nc(O)c21 (centres unmarked) [m7GppCCl2ppG]	41.4 ± 6.6 µM	–
CO[C@@H]1[C@H](OP(=O)(O)OC[C@H]2O[C@@H](n3cnc4c(=O)[nH]c(N)nc43)[C@H](O)[C@@H]2O)[C@@H](COP(=O)(O)CP(=O)(O)OP(=O)([O-])OC[C@H]2O[C@@H](n3c[n+](C)c4c(O)nc(N)nc43)[C@H](O)[C@@H]2O)O[C@H]1n1cnc2c(N)ncnc21 [m7GppCH2pAmpG]	27.4 ± 6.2 µM	–
Nc1nc2c(ncn2[C@@H]2O[C@H](COP(=O)(O)OP(=O)(O)OP(=O)(O)OC[C@H]3O[C@@H](n4cnc5c(=O)[nH]c(N)nc54)[C@H](O)[C@@H]3O)[C@@H](O)[C@H]2O)c(=O)[nH]1 [GpppG]	> 100 µM	–
m7Gmppp6SG	7.2 ± 1.1 µM	–
CO[C@H]1[C@@H](O)[C@H]([n+]2cn(C)c3c(=O)[nH]c(N)nc32)O[C@@H]1COP(=O)([O-])OP(=O)(O)OP(=O)(O)OC[C@H]1O[C@@H](n2cnc3c(=O)[nH]c(N)nc32)[C@H](O)[C@@H]1O [m27,3’OGpppG]	10.6 ± 1.1 µM	–

Molecule	IC50 [1]	also measured
CO[C@@H]1[C@H](OP(=O)(O)OC[C@H]2O[C@@H](n3cnc4c(=O)[nH]c(N)nc43)[C@H](O)[C@@H]2O)[C@@H](COP(=O)(O)OP(=O)(O)OP(=O)([O-])OC[C@H]2O[C@@H]([n+]3cn(C)c4c(=O)[nH]c(N)nc43)[C@H](O)[C@@H]2O)O[C@H]1n1cnc2c(=O)[nH]c(N)nc21 [m7GpppGmpG]	12 ± 2.4 µM	–
m7GNpppG	32.1 ± 5.9 µM	–
Cc1n([C@@H]2O[C@H](COP(=O)(O)OP(=O)(O)OP(=O)(O)O)[C@@H](O)[C@H]2O)c2nc(N)[nH]c(=O)c2[n+]1C [Compound 8Mem7GTP, 8Mem7GTP]	42.9 ± 7.8 µM	–
C[n+]1cn([C@@H]2O[C@H](COP(=O)(O)OP(=O)(O)OP(=O)(O)OC[C@H]3O[C@@H](n4c[n+](C)c5c(=O)[nH]c(N)nc54)[C@H](O)[C@@H]3O)[C@@H](O)[C@H]2O)c2nc(N)[nH]c(=O)c21 [m7Gpppm7G]	14.3 ± 2.1 µM	–
Nc1nc2ccc(Cl)cc2c2nc(-c3ccco3)nn12 [CGS-15943, reference compound]	–	IC50: 20.1 ± 5.2 µM
C[n+]1cn([C@@H]2O[C@H](COP(=O)([O-])OP(=O)(O)CP(=O)(O)O)[C@@H](O)[C@H]2O)c2nc(N)nc(O)c21 [m7GppCH2p]	1.1 ± 0.1 µM	–
Gpp-triazole-m7G	> 100 µM	–
Cc1n([C@@H]2O[C@H](COP(=O)(O)OP(=O)(O)O)[C@@H](O)[C@H]2O)c2nc(N)[nH]c(=O)c2[n+]1C [Compound 8Mem7GDP, 8Mem7GDP]	> 100 µM	–
C[n+]1cn(C2OC(COP(=O)([O-])OP(=O)(O)OP(=O)(O)OP(=O)(O)OP(=O)(O)OCC3OC(n4cnc5c(=O)[nH]c(N)nc54)C(O)C3O)C(O)C2O)c2nc(N)[nH]c(=O)c21 (centres unmarked) [m7GpppppG]	13.9 ± 2.5 µM	–
Nc1ncnc2c1ncn2[C@@H]1O[C@H](COP(O)(=S)OP(=O)(O)OP(O)(=S)OC[C@H]2O[C@@H](n3cnc4c(N)ncnc43)[C@H](O)[C@@H]2O)[C@@H](O)[C@H]1O (some centres unmarked) [ApSppSA]	> 100 µM	–
Cn1c[n+]([C@@H]2O[C@H](COP(=O)(O)O)[C@@H](O)[C@H]2O)c2nc(N)[nH]c(=O)c21 [m7GMP]	> 100 µM	–
Nc1nc2c(ncn2[C@@H]2O[C@H](COP(=O)(O)OP(=O)(O)OP(=O)(O)O)[C@@H](O)[C@H]2O)c(=O)[nH]1 [GTP, reference compound]	15.4 ± 2.7 µM	–
m7Gpp-triazole-G	17.5 ± 2.6 µM	–
CO[C@@H]1[C@H](OP(=O)(O)OC[C@H]2O[C@@H](n3cnc4c(=O)[nH]c(N)nc43)[C@H](O)[C@@H]2O)[C@@H](COP(=O)(O)OP(=O)([O-])OP(=O)(O)OC[C@H]2O[C@@H](n3c[n+](C)c4c(=O)[nH]c(N)nc43)[C@H](O)[C@@H]2OC)O[C@H]1n1cnc2c(=O)[nH]c(N)nc21 [m7GmpppGmpG]	–	IC50 [2]: 3.9 ± 0.5 µM; IC50 (read-out: IC50, nucleotide-derived compounds, FLINT HTS assay, in-house nucleotide library (Table S1, Figure 3), 3 μM probe 1b, 5 nM D9, 30 °C, means of 3 independent experiments ± SEM, listed as m^7GmpppGmpG): ~4 µM
m7GppCCl2ppm7G	28.8 ± 4.1 µM	–
C[n+]1cn(C2OC(COP(=O)(O)OP(=O)([O-])C(F)(F)P(=O)(O)OP(=O)(O)OCC3OC(n4cnc5c(=O)[nH]c(N)nc54)C(O)C3O)C(O)C2O)c2nc(N)nc(O)c21 (centres unmarked) [m7GppCF2ppG]	16.7 ± 3.1 µM	–
Gppp-SCH2-triazole-m7G	> 100 µM	–
Nc1nc2c(ncn2[C@@H]2O[C@H](COP(=O)(O)OP(=O)(O)OP(=O)(O)OC[C@H]3O[C@@H](n4cnc5c(N)ncnc54)[C@H](O)[C@@H]3O)[C@@H](O)[C@H]2O)c(=O)[nH]1 [GpppA]	> 100 µM	–
C[n+]1cn([C@@H]2O[C@H](COP(O)(=S)OP(=O)(O)O)[C@@H](O)[C@H]2O)c2nc(N)[nH]c(=O)c21 (some centres unmarked) [m7GDPαS D2]	7.6 ± 1.2 µM	–
C[n+]1cn(C2OC(COP(=O)([O-])OP(=O)(O)OP(=O)(O)OCC3OC(n4cnc5c(=S)[nH]c(N)nc54)C(O)C3O)C(O)C2O)c2nc(N)[nH]c(=O)c21 (centres unmarked) [m7Gppp6SG]	14.1 ± 1.7 µM	–
